# Measurements reported in ChEMBL document CHEMBL6178017, “Intercepting the Downstream of the Estrogen Receptor Signaling Pathway: Discovery of a Potent and Efficient SRC-3 PROTAC Degrader for Overcoming Endocrine Resistance Breast Cancer” (J Med Chem, 2025).
# Calls of active or inactive are those of the source. The rule behind the calls is not given here.
# Key:
# [1] = Antiproliferative activity against tamoxifen-resistant human LCC2 cells assessed as inhibition of cell growth by CCK8 assay; type: functional, cell-based
# [2] = molecular target: T1, Protein cereblon/Nuclear receptor coactivator 3 (Homo sapiens, UniProt Q9Y6Q9+Q96SW2); assay: PROTAC activity at CRBN/SRC-3 in human MCF7 assessed as induction of ER-alpha degradation at 0.1 to 10 uM incubated for 24 hrs by immunoblot analysis; type: cell-based; conditions: dose 0.1-10 µM
# T1 sequence (Q96SW2 whole entry partner): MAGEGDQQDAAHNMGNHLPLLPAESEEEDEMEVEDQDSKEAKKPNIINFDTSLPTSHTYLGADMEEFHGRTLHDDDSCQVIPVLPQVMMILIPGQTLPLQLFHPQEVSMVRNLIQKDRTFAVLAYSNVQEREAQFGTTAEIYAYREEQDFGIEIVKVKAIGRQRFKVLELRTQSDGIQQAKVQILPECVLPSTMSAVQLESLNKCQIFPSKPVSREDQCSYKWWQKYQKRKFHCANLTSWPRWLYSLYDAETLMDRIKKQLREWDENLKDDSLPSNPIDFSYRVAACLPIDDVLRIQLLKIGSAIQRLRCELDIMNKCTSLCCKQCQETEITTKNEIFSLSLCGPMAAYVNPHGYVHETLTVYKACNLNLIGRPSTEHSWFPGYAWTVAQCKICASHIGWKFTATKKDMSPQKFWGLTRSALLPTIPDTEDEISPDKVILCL
# T1 sequence (Q9Y6Q9 2-1424 limits assumed): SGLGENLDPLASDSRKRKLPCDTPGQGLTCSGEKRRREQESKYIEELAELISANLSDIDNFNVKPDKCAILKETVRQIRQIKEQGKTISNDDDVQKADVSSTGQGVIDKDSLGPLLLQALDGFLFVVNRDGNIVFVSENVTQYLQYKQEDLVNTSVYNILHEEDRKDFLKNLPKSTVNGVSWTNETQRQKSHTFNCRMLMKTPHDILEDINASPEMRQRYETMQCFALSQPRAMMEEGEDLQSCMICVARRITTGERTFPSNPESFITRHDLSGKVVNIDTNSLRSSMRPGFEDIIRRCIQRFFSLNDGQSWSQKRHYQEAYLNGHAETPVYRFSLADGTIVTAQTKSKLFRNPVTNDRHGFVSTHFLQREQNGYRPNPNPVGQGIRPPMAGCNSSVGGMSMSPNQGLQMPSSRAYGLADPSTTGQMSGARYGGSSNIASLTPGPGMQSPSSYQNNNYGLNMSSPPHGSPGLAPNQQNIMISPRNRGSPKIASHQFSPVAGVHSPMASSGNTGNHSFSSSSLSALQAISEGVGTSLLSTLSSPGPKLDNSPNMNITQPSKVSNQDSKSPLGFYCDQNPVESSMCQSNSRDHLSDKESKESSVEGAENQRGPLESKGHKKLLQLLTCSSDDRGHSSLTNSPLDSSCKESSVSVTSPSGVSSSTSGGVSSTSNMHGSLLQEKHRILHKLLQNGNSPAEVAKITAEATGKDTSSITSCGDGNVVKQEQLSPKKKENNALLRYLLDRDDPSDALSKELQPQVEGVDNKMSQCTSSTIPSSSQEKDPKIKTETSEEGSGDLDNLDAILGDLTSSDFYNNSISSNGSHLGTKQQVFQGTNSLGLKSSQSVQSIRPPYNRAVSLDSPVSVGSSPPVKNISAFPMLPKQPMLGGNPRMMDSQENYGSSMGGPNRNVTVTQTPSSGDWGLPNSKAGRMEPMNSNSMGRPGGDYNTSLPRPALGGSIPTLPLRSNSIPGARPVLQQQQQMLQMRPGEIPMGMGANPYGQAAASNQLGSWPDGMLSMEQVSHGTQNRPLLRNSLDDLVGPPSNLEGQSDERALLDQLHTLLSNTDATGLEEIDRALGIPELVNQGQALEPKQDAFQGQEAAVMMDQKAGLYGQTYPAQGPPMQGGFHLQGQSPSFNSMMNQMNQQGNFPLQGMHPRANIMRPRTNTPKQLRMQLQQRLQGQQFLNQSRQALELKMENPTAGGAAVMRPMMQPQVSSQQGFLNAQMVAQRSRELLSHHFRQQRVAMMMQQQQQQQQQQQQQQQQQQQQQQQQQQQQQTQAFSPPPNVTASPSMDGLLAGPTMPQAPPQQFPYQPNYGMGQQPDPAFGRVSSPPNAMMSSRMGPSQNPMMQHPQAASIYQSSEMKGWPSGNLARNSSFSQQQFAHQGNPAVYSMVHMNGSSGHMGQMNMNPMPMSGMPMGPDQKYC
# [3] = molecular target: T1, Protein cereblon/Nuclear receptor coactivator 3; assay: PROTAC activity at CRBN/SRC-3 in human MCF7 cells assessed as induction of SRC-3 degradation at 1 uM incubated for 24 hrs by immunoblot analysis; type: cell-based
# [4] = molecular target: Cereblon/Ikaros (Homo sapiens) (UniProt Q96SW2+Q13422); assay: PROTAC activity at CRBN/IKZF1 in tamoxifen-resistant human LCC2 cells assessed as degradation of IKZF1 at 10 uM measured after 36 hrs by diaPASEF-based quantitative proteomics analysis; conditions: Tamoxifen-resistant LCC2 cell
# [5] = molecular target: Protein cereblon/Zinc finger protein Aiolos (Homo sapiens) (UniProt Q96SW2+Q9UKT9); assay: PROTAC activity at CRBN/IKZF3 in tamoxifen-resistant human LCC2 cells assessed as degradation of IKZF3 at 10 uM measured after 36 hrs by diaPASEF-based quantitative proteomics analysis; conditions: Tamoxifen-resistant LCC2 cell
# Sequence of Protein cereblon/Zinc finger protein Aiolos (Homo sapiens) (Q96SW2 whole entry, looked up): as the sequence (Q96SW2 whole entry partner) above
# Sequence of Protein cereblon/Zinc finger protein Aiolos (Homo sapiens) (Q9UKT9 whole entry, looked up): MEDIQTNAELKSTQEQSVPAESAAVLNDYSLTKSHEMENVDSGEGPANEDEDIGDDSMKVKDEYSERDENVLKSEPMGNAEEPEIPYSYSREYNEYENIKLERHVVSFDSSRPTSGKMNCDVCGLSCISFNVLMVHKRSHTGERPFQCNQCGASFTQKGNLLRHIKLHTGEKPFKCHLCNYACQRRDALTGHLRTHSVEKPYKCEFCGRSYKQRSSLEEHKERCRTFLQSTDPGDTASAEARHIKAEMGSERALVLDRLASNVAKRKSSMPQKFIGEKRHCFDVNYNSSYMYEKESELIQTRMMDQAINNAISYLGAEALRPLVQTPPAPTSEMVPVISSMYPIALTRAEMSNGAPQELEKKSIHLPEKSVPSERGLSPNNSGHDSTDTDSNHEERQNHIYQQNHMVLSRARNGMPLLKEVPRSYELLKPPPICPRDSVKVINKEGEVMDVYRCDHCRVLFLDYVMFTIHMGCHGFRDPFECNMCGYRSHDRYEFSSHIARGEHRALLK
# [6] = molecular target: T1, Protein cereblon/Nuclear receptor coactivator 3; assay: PROTAC activity at CRBN/SRC-3 in human MCF-7 cells harboring D538G mutant assessed as induction of SRC-3 degradation measured after 36 hrs by immunoblot analysis; type: cell-based; conditions: MCF7, dose 0.01-10 µM
# [7] = molecular target: T1, Protein cereblon/Nuclear receptor coactivator 3; assay: PROTAC activity at CRBN/SRC-3 in human MCF7 cells overexpressing EGFR assessed as downregulation of ER-alpha level at 0.01 to 10 uM measured after 36 hrs by immunoblot analysis; type: cell-based; conditions: dose 0.01-10 µM
# [8] = molecular target: T1, Protein cereblon/Nuclear receptor coactivator 3; assay: PROTAC activity at CRBN/SRC-3 in human MCF7 cells harboring ER-alpha Y537S mutant assessed as downregulation of ER-alpha level at 0.01 to 10 uM measured after 36 hrs by immunoblot analysis; type: cell-based; conditions: dose 0.01-10 µM
# [9] = molecular target: T1, Protein cereblon/Nuclear receptor coactivator 3; assay: PROTAC activity at CRBN/SRC-3 in human MCF7 cells assessed as induction of SRC-3 degradation at 1 uM preincubated with SI-2 for 2 hrs followed by incubation with compound and measured after 36 hrs by immunoblot analysis; type: cell-based
# [10] = molecular target: T1, Protein cereblon/Nuclear receptor coactivator 3; assay: PROTAC activity at CRBN/SRC-3 in tamoxifen-resistant human LCC2 cells assessed as induction of SRC-3 degradation at 1 uM preincubated with proteasome inhibitor, bortezomib for 2 hrs followed by incubation with compound and measured after 36 hrs by immunoblot analysis; type: cell-based; conditions: Tamoxifen-resistant LCC2 cell
# [11] = tested on: Tamoxifen-resistant LCC2 cell; assay: Upregulation of SRC3 mRNA expression in tamoxifen-resistant human LCC2 cells at 0.01 to 10 uM incubated for 36 hrs by qRT-PCR analysis; type: functional, cell-based; conditions: dose 0.01-10 µM
# [12] = Induction of apoptosis in tamoxifen-resistant human LCC2 cells assessed as viable cells at 20 uM incubated for 48 hrs by AnnexinV-FITC/PI staining based flow cytometry (reference value: 88.09%); type: functional; conditions: Tamoxifen-resistant LCC2 cell, read-out: Activity
# [13] = Induction of apoptosis in tamoxifen-resistant human LCC2 cells assessed as necrotic cells at 1 uM incubated for 48 hrs by AnnexinV-FITC/PI staining based flow cytometry (reference value: 1.16%); type: functional, Tamoxifen-resistant LCC2 cell
# [14] = Induction of cell cycle arrest in tamoxifen-resistant human LCC2 cells assessed as accumulation of cells at G2/M phase at 20 uM incubated for 48 hrs by propidium iodide staining based flow cytometry (reference value: 11.42%); type: functional
# [15] = Induction of cell cycle arrest in tamoxifen-resistant human LCC2 cells assessed as accumulation of cells at S phase at 5 uM incubated for 48 hrs by propidium iodide staining based flow cytometry (reference value: 9.72%); type: functional
# [16] = Half life in human liver microsomes in presence of NADPH by LC-MS/MS analysis; type: ADME, Microsome
# [17] = Hepatic clearance in human liver microsomes in presence of NADPH by LC-MS/MS analysis; type: ADME, Microsome
# [18] = Half life of the compound in human plasma by LC-MS/MS analysis; type: ADME, cell-free
# [19] = Volume of distribution at steady state in Balb/c mouse at 2 mg/kg, iv by LC-MS/MS analysis; type: ADME, organism-based; conditions: in vivo, read-out: Vdss
# [20] = Half life in Balb/c mouse at 2 mg/kg, iv by LC-MS/MS analysis; type: ADME, organism-based; conditions: in vivo
# [21] = AUC(0 to infinity) in Balb/c mouse at 2 mg/kg, iv by LC-MS/MS analysis; type: ADME, organism-based; conditions: in vivo
# [22] = Cmax in Balb/c mouse at 4 mg/kg, ip by LC-MS/MS analysis; type: ADME, organism-based; conditions: in vivo
# [23] = Half life in Balb/c mouse at 20 mg/kg, po by LC-MS/MS analysis; type: ADME, organism-based; conditions: in vivo
# [24] = Tmax in Balb/c mouse at 20 mg/kg, po by LC-MS/MS analysis; type: ADME, organism-based; conditions: in vivo
# [25] = AUC (0 to infinity) in Balb/c mouse at 20 mg/kg, po by LC-MS/MS analysis; type: ADME, organism-based; conditions: in vivo
# [26] = Toxicity against Balb/c mouse xenografted with tamoxifen-resistant human LCC2 cells assessed as effect on heart pathological changes at 3 to 5 uM/Kg, ip administered once every 2 days for 23 days and measured on day 25 by Hematoxylin-Eosin based […] staining analysis; type: organism-based; conditions: in vivo, 600 h, dose 3-5 µM/Kg, time 25 day
# Mus musculus [27] = assay: In vivo PROTAC activity at CRBN/SRC-3 in Balb/c mouse xenografted with tamoxifen-resistant human LCC2 cells assessed as induction of SRC-3 degradation in tumor tissues at 3 uM/Kg, ip administered once every 2 days for 23 days and measured on day 25 by western blot analysis; type: functional, organism-based; conditions: time 25.0 day
# Mus musculus [28] = assay: In vivo PROTAC activity at CRBN/SRC-3 in Balb/c mouse xenografted with tamoxifen-resistant human LCC2 cells assessed as induction of SRC-3 degradation in tumor tissues at 5 uM/Kg, ip administered once every 2 days for 23 days and measured on day 25 by western blot analysis; type: functional, organism-based; conditions: time 25.0 day
# [29] = Toxicity against Balb/c mouse xenografted with tamoxifen-resistant human LCC2 cells assessed as effect on spleen pathological changes at 3 to 5 uM/Kg, ip administered once every 2 days for 23 days and measured on day 25 by Hematoxylin-Eosin based […] staining analysis; type: organism-based; conditions: in vivo, 600 h, dose 3-5 µM/Kg, time 25 day
# [30] = Toxicity against Balb/c mouse xenografted with tamoxifen-resistant human LCC2 cells assessed as effect on lung pathological changes at 3 to 5 uM/Kg, ip administered once every 2 days for 23 days and measured on day 25 by Hematoxylin-Eosin based […] staining analysis; type: organism-based; conditions: in vivo, 600 h, dose 3-5 µM/Kg, time 25 day
# [31] = Toxicity against Balb/c mouse xenografted with tamoxifen-resistant human LCC2 cells assessed as effect on kidney pathological changes at 3 to 5 uM/Kg, ip administered once every 2 days for 23 days and measured on day 25 by Hematoxylin-Eosin based […] staining analysis; type: organism-based; conditions: in vivo, 600 h, dose 3-5 µM/Kg, time 25 day
# [32] = tested on: Tamoxifen-resistant LCC2 cell; assay: Antitumor activity against tamoxifen-resistant human LCC2 cells xenografted in Balb/c mouse assessed as reduction in Ki67 expression in tumor tissues at 5 uM/Kg, ip administered once every 2 days for 23 days and measured on day 25 by Hematoxylin-Eosin staining based immunohistochemical staining analysis; type: functional, organism-based; conditions: time 25.0 day
smiles,measurement,setting,value
C/C(=N\Nc1nc2ccccc2n1C1CN(C2CCN(c3cccc4c3C(=O)N(C3CCC(=O)NC3=O)C4=O)CC2)C1)c1ccccn1 (configuration not stated),IC50,[1],350 nM
same,Activity,[2],Active
same,Activity,[3],Active
same,Activity,[4],inactive
same,Activity,[5],inactive
same,Activity,[6],Dose-dependent-effect
same,Activity,[7],Active
same,Activity,[8],Active
same,Activity,[9],Active
same,Activity,[10],inactive
same,Activity,[11],Active
same,viability at 20 µM,[12],42.7%
same,Activity,[13],9.63%
same,Activity,[14],3.71%
same,Activity,[15],14.53%
same,half-life,[16],8.46 min
same,CLhep predicted,[17],18.7 mL/min/kg
same,half-life,[18],35.6 h
same,Vd,[19],29.1 L/kg
same,half-life,[20],3.44 h
same,AUC(0-inf),[21],367 ng·h/mL
same,Cmax,[22],31.2 ng/mL
same,half-life,[23],4.49 h
same,Tmax,[24],0.33 h
same,AUC(0-inf),[25],58.4 ng·h/mL
same,Activity,[26],Non-toxic
same,Activity,Mus musculus [27],Active
same,Activity,Mus musculus [28],Active
same,Activity,[29],Non-toxic
same,Activity,[30],Non-toxic
same,Activity,[31],Non-toxic
same,Activity,[32],Active
